USRE37781E1, “Substituted cyclic carbonyls and derivatives thereof useful as retroviral protease inhibitors” (DuPont Pharmaceuticals Company, priority 1991, dated 2002)
Where two headings read alike, the source gives them in different places.

Columns and labels:
HIV-1 (RF) in MT-2 cells = assay: microbe, parasite or virus in culture; format: cell-based; conditions: Table 2d
Method: DNA Plasmids and in vitro RNA transcripts:
Plasmid pDAB 72 containing both gag and pol sequences of BH10 (bp 113-1816) cloned into PTZ 19R was prepared according to Erickson-Viitanen et al. AIDS Research and Human Retroviruses 1989, 5, 577. The plasmid was linearized with Bam HI prior to the generation of in vitro RNA transcripts using the Riboprobe Gemini system II kit (Promega) with T7 RNA polymerase. Synthesized RNA was purified by treatment with RNase free DNAse (Promega), phenol-chloroform extraction, and ethanol precipitation. RNA transcripts were dissolved in water, and stored at −70° C. The concentration of RNA was determined from the A260.
Biotinylated capture probes were purified by HPLC after synthesis on an Applied Biosystems (Foster City, Calif.) DNA synthesizer by addition of biotin to the 5′ terminal end of the oligonucleotide, using the biotin-phosphoramidite reagent of Cocuzza, Tet. Lett. 1989, 30, 6287. The gag biotinylated capture probe (5-biotin-[…] 3′) was complementary to nucleotides 889-912 of HXB2 and the pol biotinylated capture probe (5′-biotin-[…] 3′) was complementary to nucleotides 2374-2395 of HXB2. Alkaline phosphatase conjugated oligonucleotides used as reporter probes were prepared by Syngene (San Diego, Calif.). The pol reporter probe (5′ […] 3′) was complementary to nucleotides 2403-2425 of HXB2. The gag reporter probe (5′ […] 3′) was complementary to nucleotides 950-973 of HXB2. All nucleotide positions are those of the GenBank Genetic Sequence Data Bank as accessed through the Genetics Computer Group Sequence Analysis Software Package (Devereau Nucleic Acids Research 1984, 12, 387). The reporter probes were prepared as 0.5μM stocks in 2× SSC (0.3M NaCl, 0.03M sodium citrate), 0.05M Tris pH 8.8, 1 mg/mL BSA. The biotinylated capture probes were prepared as 10 μM stocks in water.
Streptavidin coated plates:
Nunc-immunomodule microtiter plate strips were coated by addition of 200 μL of streptavidin (30 ug/mL, Scripps, La Jolla, Calif.) in freshly prepared 10 mM sodium carbonate (pH 9.6). Plates were incubated overnight at 4° C. Streptavidin solution was aspirated from the wells and a blocking buffer composed of phosphate buffered saline (PBS), 20 mg/mL bovine serum albumin (crystalline, nuclease and protease free, Calbiochem) and 100 mg/mL lactose (Sigma) was added to the plates for 3 hrs at room temperature. Blocking buffer was removed from the wells, which were allowed to dry overnight at room temperature and subsequently stored at 4° C. in zip lock bags with desiccant. For the majority of the compound evaluation experiments, streptavidin coated plates were obtained from Du Pont Biotechnology Systems (Boston, Mass.).
MT-2, CEM, and H9 cells were maintained in RPMI 1640 supplemented with 5% fetal calf serum (FCS), 2 mM L-glutamine and 50 μg/mL gentamycin, all from Gibco. Laboratory strains of HIV-1 (RF, MN and IIIB) were propagated in H9 cells in the same medium. Virus stocks were prepared approximately 1 month after acute infection of H9 cells by clarification of the tissue culture medium and storage of aliquots at −70° C. […] Each aliquot of virus stock used for infection was thawed only once. In some cases, infected H9 cells were shifted to Dulbecco's modified Eagle's medium 3-10 days before collection of virus in order to generate virus stocks in medium with low biotin content. Clinical isolates of HIV that had been passaged once in MT-2 cells were used to infect fresh MT-2 cells in RPMI medium. Three days after infection, cells were pelleted, resuspended and culture continued in Dulbecco's modified Eagle's medium as above. Virus stocks of clinical isolates were prepaid 10-15 days after infection when cytopathic effects were apparent in the culture.

[1] = molecular target: single-chain tethered dimer of HIV protease (Human immunodeficiency virus 1, UniProt P04585); assay: biochemical; format: biochemical; design: fused on or other part: A second copy of the same protease unit is joined to the first by a short peptide tether, giving one polypeptide
Method: HIV Protease Inhibition Assay—HPLC Method
Active protease was prepared as described therein by extraction with 67% acetic acid, dilution 33-fold with water, dialysis against water and then against a “refolding buffer” consisting of 20 mM MES, 1 mM dithiothreitol and 10% glycerol. Protease was stored as a stock preparation at 10 uM in refolding buffer.
Substrate: Peptide of sequence: aminobenzoyl-Ala-Thr-His-Gln-Val-Tyr-Phe(NO2)-Val-Arg-Lys-Ala containing p-nitrophenylalanine, was prepared by solid phase synthesis as previously described Cheng et al., op.cit. Stock solutions of 2 mM substrate were prepared in DMSO.
Inhibitory compounds were dissolved in sufficient DMSO to make 3 mM stock solutions. All further dilutions were prepared in “assay buffer”: 1M NaCl, 50 mM MES, pH 5.5, 1 mM EDTA, 1 mM DTT, […] glycerol.
Enzyme reaction: In a 2 ml screw-cap centrifuge tube were added 50 ul protease (final concentration 0.25 nM) and 0.1 ml inhibitory compound (final concentration […]). After 15 min preincubation at room temperature, the reaction was started with the addition of 0.05 ml substrate (final concentration 5 uM). Incubation was carried out at 30 C. for 1 hr. The reaction was stopped with 1 ml 0.1M ammonium hydroxide.
HPLC measurement of product formation: The product (aminobenzoyl-Ala-Thr-His-Gln-Val-Tyr) was separated from substrate on a Pharmacia MonoQ anion exchange column. The injection volume was 0.2 ml. The mobile phases were: A (20 mM trisHCl, pH 9.0, 0.02% sodium Azide, 10% acetonitrile), B (20 mM tris HCl, pH 9.0, 0.02% sodium azide, 0.5M ammonium formate, 10% acetonitrile). The mobile phases were pumped at 1 ml/min, with a gradient from 0 to 30% B in 5 min, 100% B for 4 min to wash the column, and a re-equilibration for 4 min. The retention time of the product was 3.6 min. Detection with a Shimadzu model RF535 fluorescence monitor was at 330 nm (excitation) and 430 (emission).

[2] = Human immunodeficiency virus 1, MT2, 48 h, class symbols, read-out: IC90
[3] = read-out: HPLC K1, Table 2d, class symbols
[4] = Table 2d, HIV protease inhibition, HPLC method, read-out: HPLC K1

In the case of `CCN(CC)C(=O)c1cccc(CN2C(=O)N(Cc3cccc(C(=O)OC)c3)C(Cc3ccccc3)C(O)C(O)C2Cc2ccccc2)c1` (stereo not shown) [11T], the IC90 (HIV-1 (RF) in MT-2 cells; [2]) is reported as under 10 µg/mL and the Ki [1, 3] is reported as under 10 nM.

Work on `CCNC(=O)c1cccc(CN2C(=O)N(Cc3cccc(C(=O)OC)c3)C(Cc3ccccc3)C(O)C(O)C2Cc2ccccc2)c1` (stereo not shown) [11U] yielded an IC90 (HIV-1 (RF) in MT-2 cells; [2]) of under 10 µg/mL and a Ki [1, 3] of under 10 nM.

`CC(=O)c1cccc(CN2C(=O)N(Cc3cccc(C(=O)CCN(C)C)c3)C(Cc3ccccc3)C(O)C(O)C2Cc2ccccc2)c1` (stereo not shown) [15AD] was tested, and the IC90 (HIV-1 (RF) in MT-2 cells; HIV RNA assay) was “+++ (+++=<10 μg/mL)” and the Ki [1, 4] was under 10 nM.

In the case of `CC(C)(C)OC(=O)NN=Cc1cccc(CN2C(=O)N(Cc3cccc(C=NNC(=O)OC(C)(C)C)c3)C(Cc3ccccc3)C(O)C(O)C2Cc2ccccc2)c1` (stereo not shown) [15AL], the IC90 (HIV-1 (RF) in MT-2 cells; HIV RNA assay) is reported as “+++ (+++=<10 μg/mL)” and the Ki [1, 4] is reported as 10 to 1000 nM.

For `CNC(=NO)c1cccc(CN2C(=O)N(Cc3cccc(C(=NO)NC)c3)C(Cc3ccccc3)C(O)C(O)C2Cc2ccccc2)c1` (stereo not shown) [15AZ], the IC90 (HIV-1 (RF) in MT-2 cells; HIV RNA assay) was “+++ (+++=<10 μg/mL)” and the Ki [1, 4] was under 10 nM.

For `C=CCN1C(=O)N(CCCC)C(C)C(O)C(O)C1C` (stereo not shown) [Example 16F], the Ki ([1]; Table 2e, read-out: K4 HPLC) was over 1000 nM.

With `CC1C(O)C(O)C(C)N(Cc2ccccc2)C(=O)N1Cc1ccccc1` (stereo not shown) [Example 16G] the Ki ([1]; read-out: K4 HPLC, Table 2e) was over 1000 nM.

`C=CCN1C(=O)N(CC=C)C(CC(C)C)C(O)C(O)C1CC(C)C` (stereo not shown) [Example 16I] gave a Ki ([1]; read-out: K4 HPLC, Table 2e) of under 10 nM.

`CC(C)CC1C(O)C(O)C(CC(C)C)N(CC2CC2)C(=O)N1CC1CC1` (stereo not shown) [Example 16J] gave a Ki ([1]; Table 2e, read-out: K4 HPLC) of under 10 nM.

In the case of `CSc1ccc(CC2C(O)C(O)C(Cc3ccc(SC)cc3)N(Cc3ccccc3)C(=O)N2Cc2ccccc2)cc1` (stereo not shown) [Example 16Q], the Ki ([1]; Table 2e, read-out: K4 HPLC) is reported as under 10 nM.

`COc1cccc(CN2C(=O)N(Cc3cccc(OC)c3)C(Cc3ccccc3OC)C(O)C(O)C2Cc2ccccc2OC)c1` (stereo not shown) [Example 16R] showed a Ki ([1]; Table 2e, read-out: K4 HPLC) of 10 to 1000 nM.

`COc1ccccc1CC1C(O)C(O)C(Cc2ccccc2OC)N(CC2CC2)C(=O)N1CC1CC1` (stereo not shown) [Example 16S] gave a Ki ([1]; Table 2e, read-out: K4 HPLC) of 10 to 1000 nM.

With `COc1ccccc1CC1C(O)C(O)C(Cc2ccccc2OC)N(Cc2ccccc2)C(=O)N1Cc1ccccc1` (stereo not shown) [Example 16T] the Ki ([1]; Table 2e, read-out: K4 HPLC) was 10 to 1000 nM.

Work on `CCCCCCN1C(=O)N(CCCCCC)C(C(C)C)C(O)C(O)C1C(C)C` (stereo not shown) [Example 16X] yielded a Ki ([1]; Table 2e, read-out: K4 HPLC) of under 10 nM.

With `O=C1N(Cc2ccccc2)C(Cc2c[nH]c3ccccc23)C(O)C(O)C(Cc2c[nH]c3ccccc23)N1Cc1ccccc1` (stereo not shown) [Example 16Y] the Ki ([1]; Table 2e, read-out: K4 HPLC) was 10 to 1000 nM.

`CC(C)CC1C(O)C(O)C(CC(C)C)N(Cc2ccccc2)C(=O)N1Cc1ccccc1` (stereo not shown) [Example 16Z] was tested, and the Ki ([1]; Table 2e, read-out: K4 HPLC) was 10 to 1000 nM.

Work on `ON=C1N(Cc2ccccc2)C(Cc2ccccc2)C(O)C(O)C(Cc2ccccc2)N1Cc1ccccc1` (stereo not shown) [Example 17A] yielded a Ki ([1]; Table 2f, read-out: HPLC Ki) of 10 to 1000 nM, a Ki ([1]; second table headed Table 2f, read-out: HPLC Ki) of 10 to 1000 nM and a Ki ([1]; third table headed Table 2f, read-out: HPLC Ki) of 10 to 1000 nM.

`O=C1N(Cc2cccc(O)c2)C(Cc2ccc(F)cc2)C(O)C(O)C(Cc2ccc(F)cc2)N1Cc1cccc(O)c1` (stereo not shown) [Example 20G] gave a Ki ([1]; read-out: HPLC Ki, Table 2i) of under 10 nM.
